In patent US6737383B1, “Herbicidal oxadiazolidines” (priority 1999, dated 2004):

Legend:
bedstraw = assay: Test B pre/postemergence bedstraw; assay type: in vivo, Galium aparine
Outline: (§1)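 Test chemicals in a non-phytotoxic solvent mixture with surfactant were sprayed preemergence onto planted seeds and postemergence onto plants 2 to 18 cm tall (1- to 4-leaf stage). After twelve to sixteen days in a greenhouse, injury was visually rated against untreated controls from 0 (no effect) to 10 (complete control).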

blackgrass = assay: Test B pre/postemergence blackgrass; assay type: in vivo, Alopecurus myosuroides
Outline: as §1

surinam grass = assay: Test B pre/postemergence surinam grass; assay type: in vivo, Brachiaria decumbens
Outline: as §1

corn = assay: Test B pre/postemergence corn; assay type: in vivo, Zea mays
Outline: as §1

crabgrass = assay: Test B pre/postemergence crabgrass; assay type: in vivo, Digitaria sanguinalis
Outline: as §1

giant foxtail = assay: Test B pre/postemergence giant foxtail; assay type: in vivo, Setaria faberii
Outline: as §1

morningglory = assay: Test B pre/postemergence morningglory; assay type: in vivo, Ipomoea hederacea
Outline: as §1

pigweed = assay: Test B pre/postemergence pigweed; assay type: in vivo, Amaranthus retroflexus
Outline: as §1

soybean = assay: Test B pre/postemergence soybean; assay type: in vivo, Glycine max
Outline: as §1

velvetleaf = assay: Test B pre/postemergence velvetleaf; assay type: in vivo, Abutilon theophrasti
Outline: as §1

wheat = assay: Test B pre/postemergence wheat; assay type: in vivo, Triticum aestivum
Outline: as §1

wild oat = assay: Test B pre/postemergence wild oat; assay type: in vivo, Avena fatua
Outline: as §1

purple nutsedge = assay: Test B pre/postemergence purple nutsedge; assay type: in vivo, Cyperus rotundus
Outline: as §1

rice = assay: Test B flood test rice; assay type: in vivo, Oryza sativa; conditions: Pre-emergence
Outline: (§2)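 Flood test on plants grown to the 2-leaf stage; treated plants kept in greenhouse twelve to sixteen days, then visually rated against controls on a 0 (no effect) to 10 (complete control) scale.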

smallflower flatsedge = assay: Test B flood test smallflower flatsedge; assay type: in vivo, Cyperus difformis; conditions: Pre-emergence
Outline: as §2

duck salad = assay: Test B flood test duck salad; assay type: in vivo, Heteranthera limosa; conditions: Pre-emergence
Outline: as §2

[1] = Postemergence, Rate 1000 g/ha, scale 0 to 10 (0 no effect, 10 complete control)
[2] = Preemergence, Rate 250 g/ha, scale of 0 to 10 where 0 is no effect and 10 is complete control
[3] = Preemergence, Rate 500 g/ha, scale of 0 to 10 where 0 is no effect and 10 is complete control
[4] = Rate 125 g/ha, Postemergence, scale of 0 to 10 where 0 is no effect and 10 is complete control
[5] = Rate 125 g/ha, Preemergence, scale of 0 to 10 where 0 is no effect and 10 is complete control
[6] = Rate 250 g/ha, Postemergence, scale of 0 to 10 where 0 is no effect and 10 is complete control
[7] = Rate 500 g/ha, Postemergence, scale 0 to 10, 0 no effect, 10 complete control
[8] = Rate 1000 g/ha, Preemergence, scale 0 to 10 (0 no effect, 10 complete control)
[9] = Rate 1000 g/ha, scale 0 to 10 (0 no effect, 10 complete control)
[10] = Rate 125 g/ha, flood test species, scale 0 to 10 where 0 is no effect and 10 is complete control
[11] = Rate 250 g/ha, flood-test species, scale 0 to 10, 0 is no effect, 10 is complete control
[12] = Rate 500 g/ha, flood test species, scale 0 to 10 (0 no effect, 10 complete control)

CCOC(=O)C(C)N(C(=O)n1oc(=O)n(C2CCCCC2)c1=O)c1ccc(F)cc1 (stereo not shown) [Compound 280]
Bedstraw plant response rating (bedstraw; [1]): 0 | Bedstraw plant response rating (bedstraw; [2]): 0 | Plant response rating, Bedstraw (bedstraw; [3]): 0 | Bedstraw plant response rating (bedstraw; [4]): 0 | Bedstraw plant response rating (bedstraw; [5]): 0 | Plant response rating, Bedstraw (bedstraw; [6]): 0 | Bedstraw plant response rating (bedstraw; [7]): 0 | Plant response rating, Bedstraw (bedstraw; [8]): 0 | Blackgrass plant response rating (blackgrass; [1]): 0 | Blackgrass plant response rating (blackgrass; [2]): 0 | Plant response rating, Blackgrass (blackgrass; [3]): 0 | Blackgrass plant response rating (blackgrass; [4]): 0 | Blackgrass plant response rating (blackgrass; [5]): 0 | Plant response rating, Blackgrass (blackgrass; [6]): 0 | Blackgrass plant response rating (blackgrass; [7]): 0 | Plant response rating, Blackgrass (blackgrass; [8]): 0 | B. signalgrass plant response rating (surinam grass; [1]): 0 | B. signalgrass plant response rating (surinam grass; [2]): 0 | Plant response rating, B. signalgrass (surinam grass; [3]): 0 | B. signalgrass plant response rating (surinam grass; [4]): 0 | B. signalgrass plant response rating (surinam grass; [5]): 0 | Plant response rating, B. signalgrass (surinam grass; [6]): 0 | B. signalgrass plant response rating (surinam grass; [7]): 0 | Plant response rating, B. signalgrass (surinam grass; [8]): 0 | Corn plant response rating (corn; [1]): 0 | Corn plant response rating (corn; [2]): 0 | Plant response rating, Corn (corn; [3]): 0 | Corn plant response rating (corn; [4]): 0 | Corn plant response rating (corn; [5]): 0 | Plant response rating, Corn (corn; [6]): 0 | Corn plant response rating (corn; [7]): 0 | Plant response rating, Corn (corn; [8]): 0 | Crabgrass plant response rating (crabgrass; [1]): 0 | Crabgrass plant response rating (crabgrass; [2]): 0 | Plant response rating, Crabgrass (crabgrass; [3]): 0 | Crabgrass plant response rating (crabgrass; [4]): 0 | Crabgrass plant response rating (crabgrass; [5]): 0 | Plant response rating, Crabgrass (crabgrass; [6]): 0 | Crabgrass plant response rating (crabgrass; [7]): 0 | Plant response rating, Crabgrass (crabgrass; [8]): 0 | Giant foxtail plant response rating (giant foxtail; [1]): 0 | Giant foxtail plant response rating (giant foxtail; [2]): 0 | Plant response rating, Giant foxtail (giant foxtail; [3]): 0 | Giant foxtail plant response rating (giant foxtail; [4]): 0 | Giant foxtail plant response rating (giant foxtail; [5]): 0 | Plant response rating, Giant foxtail (giant foxtail; [6]): 0 | Giant foxtail plant response rating (giant foxtail; [7]): 0 | Plant response rating, Giant foxtail (giant foxtail; [8]): 0 | Morningglory plant response rating (morningglory; [1]): 0 | Morningglory plant response rating (morningglory; [2]): 0 | Plant response rating, Morningglory (morningglory; [3]): 0 | Morningglory plant response rating (morningglory; [4]): 0 | Morningglory plant response rating (morningglory; [5]): 0 | Plant response rating, Morningglory (morningglory; [6]): 0 | Morningglory plant response rating (morningglory; [7]): 0 | Plant response rating, Morningglory (morningglory; [8]): 0 | Redroot pigweed plant response rating (pigweed; [1]): 3 | Redroot pigweed plant response rating (pigweed; [2]): 0 | Plant response rating, Redroot pigweed (pigweed; [3]): 0 | Redroot pigweed plant response rating (pigweed; [4]): 0 | Redroot pigweed plant response rating (pigweed; [5]): 0 | Plant response rating, Redroot pigweed (pigweed; [6]): 0 | Redroot pigweed plant response rating (pigweed; [7]): 1 | Plant response rating, Redroot pigweed (pigweed; [8]): 0 | Soybean plant response rating (soybean; [1]): 5 | Soybean plant response rating (soybean; [2]): 0 | Plant response rating, Soybean (soybean; [3]): 0 | Soybean plant response rating (soybean; [4]): 1 | Soybean plant response rating (soybean; [5]): 0 | Plant response rating, Soybean (soybean; [6]): 3 | Soybean plant response rating (soybean; [7]): 5 | Plant response rating, Soybean (soybean; [8]): 0 | Velvetleaf plant response rating (velvetleaf; [1]): 0 | Velvetleaf plant response rating (velvetleaf; [2]): 0 | Plant response rating, Velvetleaf (velvetleaf; [3]): 0 | Velvetleaf plant response rating (velvetleaf; [4]): 0 | Velvetleaf plant response rating (velvetleaf; [5]): 0 | Plant response rating, Velvetleaf (velvetleaf; [6]): 0 | Velvetleaf plant response rating (velvetleaf; [7]): 0 | Plant response rating, Velvetleaf (velvetleaf; [8]): 0 | Wheat plant response rating (wheat; [1]): 0 | Wheat plant response rating (wheat; [2]): 0 | Plant response rating, Wheat (wheat; [3]): 0 | Wheat plant response rating (wheat; [4]): 0 | Wheat plant response rating (wheat; [5]): 0 | Plant response rating, Wheat (wheat; [6]): 0 | Wheat plant response rating (wheat; [7]): 0 | Plant response rating, Wheat (wheat; [8]): 0 | Wild oats plant response rating (wild oat; [1]): 0 | Wild oats plant response rating (wild oat; [2]): 0 | Plant response rating, Wild oats (wild oat; [3]): 0 | Wild oats plant response rating (wild oat; [4]): 0 | Plant response rating, Wild oats (wild oat; [6]): 0 | Wild oats plant response rating (wild oat; [7]): 0 | Plant response rating, Wild oats (wild oat; [8]): 0 | Nutsedge plant response rating (purple nutsedge; [1]): 0 | Nutsedge plant response rating (purple nutsedge; [2]): 0 | Plant response rating, Nutsedge (purple nutsedge; [3]): 0 | Nutsedge plant response rating (purple nutsedge; [4]): 0 | Nutsedge plant response rating (purple nutsedge; [5]): 0 | Plant response rating, Nutsedge (purple nutsedge; [6]): 0 | Nutsedge plant response rating (purple nutsedge; [7]): 0 | Plant response rating, Nutsedge (purple nutsedge; [8]): 0 | Rice plant response rating (rice; [9]): 0 | Rice plant response rating (rice; [10]): 0 | Rice plant response rating (rice; [11]): 0 | Rice plant response rating (rice; [12]): 0 | S. Flatsedge plant response rating (smallflower flatsedge; [9]): 0 | S. Flatsedge plant response rating (smallflower flatsedge; [10]): 0 | S. Flatsedge plant response rating (smallflower flatsedge; [11]): 0 | S. Flatsedge plant response rating (smallflower flatsedge; [12]): 0 | Ducksalad plant response rating (duck salad; [9]): 0 | Ducksalad plant response rating (duck salad; [10]): 0 | Ducksalad plant response rating (duck salad; [11]): 0 | Ducksalad plant response rating (duck salad; [12]): 0
